Measurements taken from patent US20240148723A1, “MYCOBACTERIUM TUBERCULOSIS COMPOSITIONS AND METHODS” (priority 2021, published 2024).
Where “and” joins values, the source holds several entries; their conditions need not be identical. Equal entries are not always repeated.

Tests used:
[1] = test system: ORA76 PZA-resistant strain with mutation in panD gene; type: cell-based, Mycobacterium tuberculosis
[2] = test system: Z98 PZA-resistant strain with mutation in pncA gene; type: cell-based, Mycobacterium tuberculosis
[3] = test system: five PZA resistant M. tuberculosis strains; assay: microbe, parasite or virus in culture; type: cell-based; conditions: Mycobacterium tuberculosis, 504 h, pH 6.8, read-out: MIC for PZA
[4] = test system: PZA-resistant strain (PZA^R) (#6 PncA mutation L159P); type: cell-based, Mycobacterium tuberculosis; conditions: pH 6.8
[5] = test system: Z6 PZA-resistant strain with mutation in pncA gene; type: cell-based, Mycobacterium tuberculosis
[6] = test system: ORA136 PZA-resistant strain with mutation in panD gene; type: cell-based, Mycobacterium tuberculosis
[7] = test system: ORA48 PZA-resistant strain with mutation in panD gene; type: cell-based, Mycobacterium tuberculosis
[8] = test system: Z186 PZA-resistant strain with mutation in pncA gene; type: cell-based, Mycobacterium tuberculosis
[9] = test system: M. tuberculosis PZA-resistant strains #6, #78, #98, #106, #186; type: cell-based; conditions: PZA-S1-Plus agar, pH 6.8, 400, 800 and 1600 μg PZA

NC(=O)c1cnccn1 [PZA, Pyrazinamide]
MIC of PZA [1]: greater than 300 μg/ml
Percentage of CFU to Z 0 [1]: 2.26% and 1.83% and 2.33% and 2.31%
MIC of PZA [2]: greater than 300 μg/ml
Percentage of CFU to Z 0 [2]: 6.76% and 6.62% and 5.15% and 5.81%
MIC [3]: > 800 µg/mL
PZA concentration at which the resistant strain grew [4]: 800 µg/mL
MIC of PZA [5]: greater than 300 μg/ml
Percentage of CFU to Z 0 [5]: 9.33% and 10.00% and 8.65% and 12.47%
MIC of PZA [6]: greater than 300 μg/ml
Percentage of CFU to Z 0 [6]: 3.70% and 4.19% and 3.37% and 2.56%
MIC of PZA [7]: greater than 300 μg/ml
Percentage of CFU to Z 0 [7]: 3.74% and 3.48% and 3.39% and 3.00%
MIC of PZA [8]: greater than 300 μg/ml
Percentage of CFU to Z 0 [8]: 1.07% and 1.09% and 1.01% and 1.08%
growth inhibition, paper disk [9]: no inhibition
